# In patent US20210353611A1, “METHODS OF TREATING AMYOTROPHIC LATERAL SCLEROSIS” (Yeda Research and Development Co. Ltd., priority 2018, published 2021):
# Structures can show the parent of a compound that is named as a salt.
# Tests used:
# SOD1-Tg mice [1] = assay: Motor function tests (rotarod, hanging-wire grip test, neurological scoring) in ALS mouse model; assay type: in vivo; conditions: subcutaneously implanted mini osmotic pumps, continuous administration; vs vehicle-treated SOD1-Tg mice
# Source text: G93A mSOD1-Tg mice on a C57BL/6 background were used. In all experiments, age- and gender-matched mice were used and WT littermates as controls. Mice were 40 days of age at the beginning of experiments. All mice were kept at a strict 24 hr reverse light-dark cycle, with lights being turned on from 10 pm to 10 am. Tryptophan-deficient diet (A10033Yi, Research diets, NJ, USA) was applied from the age of 40 days until the experimental end-point. For antibiotic treatment, mice were given a combination of vancomycin (0.5 g/l), ampicillin (1 g/l), kanamycin (1 g/l), and metronidazole (1 g/l) in their drinking water from the age of 40 days as previously described (Levy et al., 2015). […]
# Vehicle control pumps contained equivalent volume of Ultra-pure water. […] The cut was then closed with sterile surgical clips and the animals were carefully monitored for any signs of stress, bleeding, pain, or abnormal behavior. […]
# Rotarod: To assess motor coordination and balance, each mouse was tested with a rotarod device (Panlab Le8500 Harvard Apparatus, Spain), in acceleration speed mode (increasing from 4 rpm to 40 rpm during 10 min), with a maximum test time of 5 min. […] Each mouse was recorded three times at the ages of 60, 80, 100, 120 and 140 days. The apparatus automatically recorded the elapsed time when the mouse fell from the spindle. […]
# SOD1-Tg mice [2] = assay: Survival of SOD1-Tg mice; assay type: in vivo, mouse; conditions: NAM s.c. osmotic pumps vs vehicle; p=0.1757, Log-rank test
# Method: From the age of 130 days, mice were monitored daily. The endpoint was defined by reaching neurological score of 4 and/or more than 15% reduction in body weight. The probability of survival was calculated using the Kaplan-Meier method, and statistical analysis was performed using a log-rank test.
# [3] = NAM levels in CSF and sera of mice (targeted metabolomics); conditions: NAM 49.28 mg/kg/week s.c. osmotic pumps; SOD1-Tg mice vs water-treated controls
# Method: Mice were anesthetized by i.p. injection of ketamine (100 mg/kg) and xylazine (10 mg/kg). The skin of the neck was shaved, and the mouse was placed prone on the stereotaxic instrument. The head was secured with the head adaptors. […] Under the dissection microscope, the subcutaneous tissue and muscles (m. biventer cervicis and m. rectus capitis dorsalis major) were separated by blunt dissection with forceps. A pair of micro-retractors is used to hold the muscles apart. The dura mater was blotted dry with sterile cotton swab. CSF was collected using a capillary tube to penetrate into the cisterna magna through the dura mater, lateral to the arteria dorsalis spinalis, immediately frozen in liquid nitrogen and stored at −80° C.
# The samples (in 50% Methanol) were dried in a speed vac to blow off the methanol before drying to completion in a lyophilizer. All samples were re-dissolved in 100 μl of 0.1% formic acid.
# Liquid Chromatography: Liquid chromatography was performed on a Waters Acquity UPLC system. […] Mobile phase consisted of (A) water and (B) acetonitrile each containing 0.1% formic acid. […]
# Mass Spectrometry: LC-MS/MS analysis was performed on a Waters Xevo triple quadrupole equipped with a Zspray ESI source. […] TargetLynx (Waters) was used for Qualitative and Quantitative analysis.
Compound,ALS symptoms / behavioral and neurological motor tests (SOD1-Tg mice [1]),Survival (SOD1-Tg mice [2]),NAM levels in sera [3]
"NC(=O)c1cccnc1 [NAM, Nicotinamide]",performed significantly better,non-significantly trend to improve survival,significantly increased
O=S(=O)(O)Oc1ccccc1 [Phenol sulfate],did not affect ALS symptoms,–,–
